Assay results published in ChEMBL document CHEMBL1150106, “Carvone and perillaldehyde interfere with the serum-induced formation of filamentous structures in Candida albicans at substantially lower concentrations than those causing significant inhibition of growth” (J Nat Prod, 2002).
The source made the active and inactive calls. No cut-off for these calls is given here.

Assays:
Assay type in all cases: functional, organism-based
[1] = test system: Candida albicans; assay: Anticandidal activity against Candida albicans H317 assessed as inhibition of transformation of organism from cellular yeast to filamentous form at 125 uM preincubated for 2 hrs before addition of fetal bovine serum measured after 22 hrs by phase contrast microscopy
[2] = test system: Candida albicans; assay: Growth inhibition of cellular yeast form of Candida albicans H317 at 5 mM after 2 hrs
[3] = test system: Candida albicans; assay: Anticandidal activity against Candida albicans H317 assessed as inhibition of transformation of organism from cellular yeast to filamentous form at 250 uM preincubated for 2 hrs before addition of fetal bovine serum measured after 22 hrs by phase contrast microscopy

| SMILES | Activity [1] | Activity [2] | Activity [3] |
| --- | --- | --- | --- |
| C=C(C)[C@@H]1CC=C(C=O)CC1 | Active | Active | – |
| C=C(C)[C@H]1CC=C(C)C(=O)C1 | – | Active | Active |
